Target: Tyrosine-protein kinase SYK (Homo sapiens) (UniProt P43405)
Assay: Inhibition of recombinant human full length N-terminal His6-tagged SYK expressed in baculovirus Sf21 insect cells preincubated for 5 mins followed by substrate addition after 30 to 60 mins in presence of ATP by fluorescence assay

C=CS(=O)(=O)N1CCC[C@@H]1Cn1cc(-c2ccc3c(c2)OCO3)c2c(N)ncnc21
IC50: > 10 µM
